Experimental data taken from article PMC3553014, “Albumin Stimulates the Activity of the Human UDP-Glucuronosyltransferases 1A7, 1A8, 1A10, 2A1 and 2B15, but the Effects Are Enzyme and Substrate Dependent” (PLoS ONE, 2013).
Where “and” joins values, the source holds several entries; their conditions need not be identical. Identical values can stand only once. Like-named read-outs stand apart in the source and are kept apart here.

Legend:
UGT1A1 = target: T1, UGT1A1 (Homo sapiens, UniProt P22309); assay: UGT1A1-catalyzed glucuronidation, enzyme kinetics
T1 sequence (P22309 26-533): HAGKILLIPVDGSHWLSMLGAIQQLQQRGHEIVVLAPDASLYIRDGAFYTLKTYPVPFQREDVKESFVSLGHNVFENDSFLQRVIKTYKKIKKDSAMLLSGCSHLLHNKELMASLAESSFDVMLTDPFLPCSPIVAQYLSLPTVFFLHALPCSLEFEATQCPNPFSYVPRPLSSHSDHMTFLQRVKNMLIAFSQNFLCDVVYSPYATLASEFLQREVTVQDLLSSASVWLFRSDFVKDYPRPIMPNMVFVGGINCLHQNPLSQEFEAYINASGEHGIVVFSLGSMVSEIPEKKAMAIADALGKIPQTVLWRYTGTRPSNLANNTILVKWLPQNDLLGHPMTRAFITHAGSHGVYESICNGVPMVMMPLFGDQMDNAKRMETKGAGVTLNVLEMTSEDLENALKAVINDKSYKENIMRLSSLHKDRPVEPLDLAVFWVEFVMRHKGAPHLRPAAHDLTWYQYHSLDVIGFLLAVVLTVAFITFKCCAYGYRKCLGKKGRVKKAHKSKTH
Method: (§1) Recombinant human UGTs 1A1, 1A6, 1A7, 1A8, 1A10, 2A1, 2B4, 2B7 and 2B17 were expressed as His-tagged proteins in baculovirus-infected insect cells as described previously [14]. […] Protein concentrations were determined by the BCA method (Pierce Biotechnology, Rockford, IL, USA).
(§2) The protein concentrations and incubation times for the enzyme kinetic assays were selected based on preliminary assays in order to ensure that the product formation was within the linear range with respect to both protein concentration and time, and that the substrate consumption during the reaction was less than 10%. The initial velocity measurements were performed in either duplicates or triplicates and they are presented as the average values and S.E.
(§3) The glucuronidation rates by recombinant enzymes are reported as “expression normalized” values. The relative expression level of each recombinant UGT that was produced in our laboratory was determined using immunoblotting, as previously described [14], [19]. The dot blot assays were performed in triplicate and the average value was used for normalization. […] The “expression normalized” glucuronidation rates were calculated by dividing the measured glucuronidation rates with relative expression level of the each given recombinant UGT.
(§4) In assays containing BSA, the total concentrations of substrate were corrected according to the measured drug binding to BSA, under the specific conditions of each glucuronidation assay. The statistical significance of the difference in enzyme kinetics parameters upon BSA addition was tested with extra sum-of-squares F-test (included in the GraphPad software, [20]. The initial glucuronidation rates were fitted to the following equations:

UGT1A8 = target: T2, UGT1A8 (Homo sapiens, UniProt Q9HAW9); assay: UGT1A8-catalyzed glucuronidation, enzyme kinetics
T2 sequence (Q9HAW9 26-530): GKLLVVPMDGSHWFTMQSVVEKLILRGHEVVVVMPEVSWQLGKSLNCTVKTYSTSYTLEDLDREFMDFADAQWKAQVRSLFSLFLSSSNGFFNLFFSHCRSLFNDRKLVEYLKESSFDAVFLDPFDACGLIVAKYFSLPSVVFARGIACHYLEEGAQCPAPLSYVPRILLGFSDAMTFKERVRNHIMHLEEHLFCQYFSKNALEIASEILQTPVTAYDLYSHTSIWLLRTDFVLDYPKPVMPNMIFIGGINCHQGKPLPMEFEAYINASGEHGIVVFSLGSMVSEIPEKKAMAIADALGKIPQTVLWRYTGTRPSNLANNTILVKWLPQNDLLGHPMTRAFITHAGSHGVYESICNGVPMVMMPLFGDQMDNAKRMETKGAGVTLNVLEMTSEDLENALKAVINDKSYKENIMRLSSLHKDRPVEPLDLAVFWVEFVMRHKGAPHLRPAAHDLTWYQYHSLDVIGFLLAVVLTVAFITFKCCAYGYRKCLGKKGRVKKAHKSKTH
Method: as §1, §2, §3
In assays containing BSA, the total concentrations of substrate were corrected according to the measured drug binding to BSA, under the specific conditions of each glucuronidation assay.

UGT1A6 = target: T3, UGT1A6 (Homo sapiens, UniProt P19224); assay: UGT1A6-catalyzed glucuronidation, enzyme kinetics
T3 sequence (P19224 27-532): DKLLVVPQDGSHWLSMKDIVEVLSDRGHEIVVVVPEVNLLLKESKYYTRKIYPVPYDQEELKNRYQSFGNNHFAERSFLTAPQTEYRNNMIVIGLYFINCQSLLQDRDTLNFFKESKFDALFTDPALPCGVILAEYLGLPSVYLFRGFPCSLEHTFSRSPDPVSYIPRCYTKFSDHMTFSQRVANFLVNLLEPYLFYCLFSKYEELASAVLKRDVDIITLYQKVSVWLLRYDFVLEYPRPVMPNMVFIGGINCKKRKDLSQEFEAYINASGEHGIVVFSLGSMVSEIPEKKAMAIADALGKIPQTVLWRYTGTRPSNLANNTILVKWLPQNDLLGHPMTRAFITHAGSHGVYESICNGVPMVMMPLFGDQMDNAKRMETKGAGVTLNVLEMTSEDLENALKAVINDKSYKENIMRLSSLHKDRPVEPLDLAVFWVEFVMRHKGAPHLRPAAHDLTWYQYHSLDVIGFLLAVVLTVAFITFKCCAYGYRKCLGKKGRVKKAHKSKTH
Method: as §1, §2, §3, §4

UGT2B17 = target: T4, UGT2B17 (Homo sapiens, UniProt O75795)
T4 sequence (O75795 24-530): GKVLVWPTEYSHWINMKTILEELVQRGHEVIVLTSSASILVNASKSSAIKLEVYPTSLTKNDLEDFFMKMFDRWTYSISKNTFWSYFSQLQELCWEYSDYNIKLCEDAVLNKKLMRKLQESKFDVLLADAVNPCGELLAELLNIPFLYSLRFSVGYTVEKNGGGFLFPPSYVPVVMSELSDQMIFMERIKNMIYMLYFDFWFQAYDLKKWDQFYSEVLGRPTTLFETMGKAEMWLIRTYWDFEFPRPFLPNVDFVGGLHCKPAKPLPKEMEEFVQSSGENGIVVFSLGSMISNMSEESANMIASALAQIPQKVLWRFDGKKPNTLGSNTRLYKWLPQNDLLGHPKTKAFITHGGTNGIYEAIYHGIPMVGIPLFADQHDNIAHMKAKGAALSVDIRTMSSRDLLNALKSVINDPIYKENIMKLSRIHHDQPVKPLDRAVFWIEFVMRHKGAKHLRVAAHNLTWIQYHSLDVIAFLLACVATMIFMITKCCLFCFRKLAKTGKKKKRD
Method: as §1, §2, §3, §4

BSA [1] = target: T5, BSA (Bos taurus, UniProt P02769); assay: in vitro; conditions: bovine
T5 sequence (P02769 25-607): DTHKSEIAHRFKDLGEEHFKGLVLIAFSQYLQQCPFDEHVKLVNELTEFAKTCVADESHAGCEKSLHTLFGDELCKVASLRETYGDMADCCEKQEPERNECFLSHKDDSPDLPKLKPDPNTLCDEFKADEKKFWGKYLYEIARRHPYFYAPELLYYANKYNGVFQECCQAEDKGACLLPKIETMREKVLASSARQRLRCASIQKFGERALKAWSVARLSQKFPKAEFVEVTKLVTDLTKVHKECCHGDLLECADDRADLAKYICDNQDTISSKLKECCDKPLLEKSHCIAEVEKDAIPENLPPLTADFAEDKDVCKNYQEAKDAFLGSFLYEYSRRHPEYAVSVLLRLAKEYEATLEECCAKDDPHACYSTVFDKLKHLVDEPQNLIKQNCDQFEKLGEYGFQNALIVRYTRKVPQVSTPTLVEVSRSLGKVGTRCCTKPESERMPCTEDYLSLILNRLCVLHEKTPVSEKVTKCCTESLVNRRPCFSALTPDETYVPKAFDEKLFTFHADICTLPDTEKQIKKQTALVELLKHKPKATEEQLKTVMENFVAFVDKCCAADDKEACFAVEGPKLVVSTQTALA

BSA [2] = target: T5, BSA; set-up: purchased Sigma-Aldrich (St. Louis, MO, USA); conditions: 2% BSA; 25 (Walsky et al. 2012); cited from earlier work
[3] = Drug binding to control insect cell membranes by RED; conditions: 0.2 mg/mL total protein in the membrane
[4] = substrate: Cc1cc(=O)oc2cc(O)ccc12; assay: purified protein, by the assay type; conditions: pH 7.4
[5] = substrate: Oc1cccc2ccccc12; assay: purified protein, by the assay type; conditions: pH 7.4
not read [6] = substrate: Oc1ccc2cc[nH]c2c1; assay: not read; conditions: other: No BSA, pH 7.4
Method: as §1, §2, §3, §4

not read [7] = substrate: Cc1cc(=O)oc2cc(O)ccc12; assay: not read; conditions: other: No BSA, pH 7.4
Method: as §1, §2, §3, §4

**Q.** For `Oc1cccc2ccccc12` [1-Naphthol, 1-naphthol], which “K m or S 50 ± S.E.” value (UGT1A1) is on record?
**A.** The value was 101±11(78–123) µM and 81.6±5.1(71.0–92.1) µM.

**Q.** And the “V max ± S.E.” value (UGT1A1)?
**A.** Its value is 0.11±0.01(0.10–0.13) nmol•min^–1•mg^–1.

**Q.** What about the “K m or S 50 ± S.E.” value (UGT1A8) of the same molecule?
**A.** The value was 91.6±6.6(78.0–105.3) µM and 105±16(73–137) µM.

**Q.** And the “V max ± S.E.” value (UGT1A8)?
**A.** The value was 2.5±0.1(2.3–2.7) nmol•min^–1•mg^–1.

**Q.** And the “K m or S 50 ± S.E.” value (UGT1A6; 0.1% BSA, substrate concentration corrected for binding to BSA)?
**A.** The value was 5.25±0.23 ^***(4.78–5.72) µM.

**Q.** And the “K m or S 50 ± S.E.” value (UGT1A6; No BSA)?
**A.** Its value is 8.07±0.48(7.08–9.06) µM.

**Q.** And the “V max ± S.E.” value (UGT1A6; No BSA, expression level-normalized)?
**A.** The value was 6.7±0.1(6.47–6.94) nmol•min^–1•mg^–1.

**Q.** And the “K m or S 50 ± S.E.” value (UGT2B17)?
**A.** Its value is 540±26(485–595) µM and 484±27(427–541) µM.

**Q.** And the “V max ± S.E.” value (UGT2B17)?
**A.** The value was 0.28±0.01(0.26–0.31) nmol•min^–1•mg^–1.

**Q.** Which “K m or S 50 ± S.E.” value (UGT1A1) does the source give for `C[C@]12CC[C@@H]3c4ccc(O)cc4CC[C@H]3[C@@H]1CC[C@@H]2O` [17β-Estradiol, 17β-estradiol] here?
**A.** The value was 7.84±1.62(4.48–11.21) µM.

**Q.** And the “K m or S 50 ± S.E.” value (UGT1A1; 0.1% BSA, substrate concentration corrected for binding to BSA, estradiols: 3-glucuronide formation)?
**A.** Its value is 9.06±1.14(6.70–11.42) µM.

**Q.** And the fraction unbound at 8 h (BSA [1])?
**A.** Its fraction unbound at 8 h is 0.48 ± 0.01.

**Q.** And the “f u (unbound fraction)” value (BSA [2])?
**A.** The value was 0.04.

**Q.** What about the “binding to control insect cell membrane” value [3] of the same molecule?
**A.** The value was “negligible”.

**Q.** What about the “V max ± S.E.” value (UGT1A8) of the same molecule?
**A.** The value was 0.020±0.0003(0.019–0.021) nmol•min^–1•mg^–1.

**Q.** What about the “K m or S 50 ± S.E.” value (UGT1A8; 0.1% BSA, substrate concentration corrected for binding to BSA, 17β-estradiol: 3-glucuronide formation) of the same molecule?
**A.** The value was 4.70±0.62 ^**(3.42–5.99) µM.

**Q.** And the “V max ± S.E.” value (UGT2B17)?
**A.** Its value is 0.013±0.0002(0.0125–0.0132) nmol•min^–1•mg^–1.

B1: UGT2B4 (Homo sapiens) (protein)
chain: GKVLVWPTEFSHWMNIKTILDELVQRGHEVTVLASSASISFDPNSPSTLKFEVYPVSLTKTEFEDIIKQLVKRWAELPKDTFWSYFSQVQEIMWTFNDILRKFCKDIVSNKKLMKKLQESRFDVVLADAVFPFGELLAELLKIPFVYSLRFSPGYAIEKHSGGLLFPPSYVPVVMSELSDQMTFIERVKNMIYVLYFEFWFQIFDMKKWDQFYSEVLGRPTTLSETMAKADIWLIRNYWDFQFPHPLLPNVEFVGGLHCKPAKPLPKEMEEFVQSSGENGVVVFSLGSMVSNTSEERANVIASALAKIPQKVLWRFDGNKPDTLGLNTRLYKWIPQNDLLGHPKTRAFITHGGANGIYEAIYHGIPMVGVPLFADQPDNIAHMKAKGAAVSLDFHTMSSTDLLNALKTVINDPLYKENAMKLSRIHHDQPVKPLDRAVFWIEFVMRHKGAKHLRVAAHDLTWFQYHSLDVTGFLLACVATVIFIITKCLFCVWKFVRTGKKGKRD
**Q.** For B1, which K0.5 [4] is on record?
**A.** Its K0.5 is 298±43(210–387) uM.

**Q.** And the K0.5 [5]?
**A.** Its K0.5 is 210±12(186–235) uM.

B2: UGT2B17 (Homo sapiens) (protein)
chain: GKVLVWPTEYSHWINMKTILEELVQRGHEVIVLTSSASILVNASKSSAIKLEVYPTSLTKNDLEDFFMKMFDRWTYSISKNTFWSYFSQLQELCWEYSDYNIKLCEDAVLNKKLMRKLQESKFDVLLADAVNPCGELLAELLNIPFLYSLRFSVGYTVEKNGGGFLFPPSYVPVVMSELSDQMIFMERIKNMIYMLYFDFWFQAYDLKKWDQFYSEVLGRPTTLFETMGKAEMWLIRTYWDFEFPRPFLPNVDFVGGLHCKPAKPLPKEMEEFVQSSGENGIVVFSLGSMISNMSEESANMIASALAQIPQKVLWRFDGKKPNTLGSNTRLYKWLPQNDLLGHPKTKAFITHGGTNGIYEAIYHGIPMVGIPLFADQHDNIAHMKAKGAALSVDIRTMSSRDLLNALKSVINDPIYKENIMKLSRIHHDQPVKPLDRAVFWIEFVMRHKGAKHLRVAAHNLTWIQYHSLDVIAFLLACVATMIFMITKCCLFCFRKLAKTGKKKKRD
**Q.** For B2, which K0.5 [4] is on record?
**A.** The K0.5 was 377±42(291–463) uM.

**Q.** What about the Vmax [4] of the same molecule?
**A.** Its Vmax is 5e-05 µmol/min/mg.

**Q.** What about the K0.5 [5] of the same molecule?
**A.** Its K0.5 is 540±26(485–595) uM.

B3: UGT2A1 (Homo sapiens) (protein)
chain: GNVLIWPMEGSHWLNVKIIIDELIKKEHNVTVLVASGALFITPTSNPSLTFEIYKVPFGKERIEGVIKDFVLTWLENRPSPSTIWRFYQEMAKVIKDFHMVSQEICDGVLKNQQLMAKLKKSKFEVLVSDPVFPCGDIVALKLGIPFMYSLRFSPASTVEKHCGKVPYPPSYVPAVLSELTDQMSFTDRIRNFISYHLQDYMFETLWKSWDSYYSKALGGLLLCCPGWSAVADLGSLQPLLPGFKRFSRLSLHCSWDYRLPAGRPTTLCETMGKAEIWLIRTYWDFEFPRPYLPNFEFVGGLHCKPAKPLPKVLWRYKGKKPATLGNNTQLFDWIPQNDLLGHPKTKAFITHGGTNGIYEAIYHGVPMVGVPMFADQPDNIAHMKAKGAAVEVNLNTMTSVDLLSALRTVINEPSYKENAMRLSRIHHDQPVKPLDRAVFWIEFVMRHKGAKHLRVAAHDLTWFQYHSLDVIGFLLVCVTTAIFLVIQCCLFSCQKFGKIGKKKKRE
**Q.** What does the source list for B3?
**A.** K0.5 (not read [6]): 1474±121(1223–1724) µM; Vmax (not read [6]): 0.00079 µmol/min/mg; K0.5 (not read [7]): 48.1±4.8(38.2–57.9) µM; Vmax (not read [7]): 0.0021 µmol/min/mg
